Assay [1] in a line: Binding interaction with fibrinogen assessed as spin lattice relaxation rate enumerated as normalized affinity index at given concentration and fixed temperature by NMR relaxation experiment.
Assay [2] has as its system Platelet. Put plainly: Binding interaction with platelet assessed as spin lattice relaxation rate enumerated as normalized affinity index at given concentration and fixed temperature by NMR relaxation experiment. Type of assay: cell-based.

Molecules are shown by their SMILES.

Turning to `CNC[C@H](O)c1ccc(O)c(O)c1`, in assay [1], the [A]T,L is 26900 /mol.dm'3. Besides, the [A]T,L (10'-8 /no of units.cm'3) in assay [2] amounted to 4.66.

As for `CC(C)NCC(O)c1ccc(O)c(O)c1` (centres undefined), in assay [1], the [A]T,L was 9730 /mol.dm'3. The [A]T,L (10'-8 /no of units.cm'3) in assay [2] was 4.47.

Source of the values: ChEMBL document CHEMBL1152696, “Interaction study of bioactive molecules with fibrinogen and human platelets determined by 1H NMR relaxation experiments” (Bioorg Med Chem, 2009).
